In patent publication US9469650B2, “Melampomagnolide B derivatives” (BOARD OF TRUSTEES OF THE UNIVERSITY OF ARKANSAS, priority 2013, dated 2016):

Experiments:
SR = assay: panel of 60 human tumor cell lines, growth inhibition (Leukemia)
MDA-MB-435 = assay: panel of 60 human tumor cell lines, growth inhibition (Melanoma); conditions: MDA-MB-435
SK-MEL-28 = assay: as above; conditions: SK-MEL-28
UACC-62 = assay: as above; conditions: UACC-62
SF-295 = assay: panel of 60 human tumor cell lines, growth inhibition (CNS Cancer); conditions: SF-295
SF-539 = assay: as above; conditions: SF-539
SNB-19 = assay: as above; conditions: SNB-19
SNB-75 = assay: as above; conditions: SNB-75
COLO 205 = assay: panel of 60 human tumor cell lines, growth inhibition (Colon Cancer); conditions: COLO 205
HCC-2998 = assay: as above; conditions: HCC-2998

C=C1C(=O)O[C@H]2[C@H]1CC/C(COC(=O)N1CCN(C)CC1)=C\CC[C@@]1(C)O[C@@H]21 [JVM 2-44]
GI50 (SR): 2.81 µM | TGI (SR): 3.33E−5 | Mean Optical Densities (SR; Log10 Concentration −4.0): 0.332 | Percent Growth (SR; Log10 Concentration −4.0): −14% | Mean Optical Densities (SR; Log10 Concentration −5.0): 0.534 | Percent Growth (SR; Log10 Concentration −5.0): 16% | Mean Optical Densities (SR; Log10 Concentration −6.0): 1.105 | Percent Growth (SR; Log10 Concentration −6.0): 78% | Mean Optical Densities (SR; Log10 Concentration −7.0): 1.224 | Percent Growth (SR; Log10 Concentration −7.0): 91% | Mean Optical Densities (SR; Log10 Concentration −8.0): 1.227 | Percent Growth (SR; Log10 Concentration −8.0): 91% | GI50 (MDA-MB-435): 7.64 µM | TGI (MDA-MB-435): 2.27E−5 | Mean Optical Densities (MDA-MB-435; Log10 Concentration −4.0): 0.109 | Percent Growth (MDA-MB-435; Log10 Concentration −4.0): −80% | Mean Optical Densities (MDA-MB-435; Log10 Concentration −5.0): 1.343 | Percent Growth (MDA-MB-435; Log10 Concentration −5.0): 44% | Mean Optical Densities (MDA-MB-435; Log10 Concentration −6.0): 2.253 | Percent Growth (MDA-MB-435; Log10 Concentration −6.0): 94% | Mean Optical Densities (MDA-MB-435; Log10 Concentration −7.0): 2.240 | Percent Growth (MDA-MB-435; Log10 Concentration −7.0): 93% | Mean Optical Densities (MDA-MB-435; Log10 Concentration −8.0): 2.396 | Percent Growth (MDA-MB-435; Log10 Concentration −8.0): 102% | GI50 (SK-MEL-28): 7.03 µM | TGI (SK-MEL-28): 2.21E−5 | Mean Optical Densities (SK-MEL-28; Log10 Concentration −4.0): 0.108 | Percent Growth (SK-MEL-28; Log10 Concentration −4.0): −80% | Mean Optical Densities (SK-MEL-28; Log10 Concentration −5.0): 0.950 | Percent Growth (SK-MEL-28; Log10 Concentration −5.0): 42% | Mean Optical Densities (SK-MEL-28; Log10 Concentration −6.0): 1.424 | Percent Growth (SK-MEL-28; Log10 Concentration −6.0): 93% | Mean Optical Densities (SK-MEL-28; Log10 Concentration −7.0): 1.424 | Percent Growth (SK-MEL-28; Log10 Concentration −7.0): 93% | Mean Optical Densities (SK-MEL-28; Log10 Concentration −8.0): 1.458 | Percent Growth (SK-MEL-28; Log10 Concentration −8.0): 96% | GI50 (UACC-62): 6.56 µM | TGI (UACC-62): 2.14E−5 | Mean Optical Densities (UACC-62; Log10 Concentration −4.0): 0.089 | Percent Growth (UACC-62; Log10 Concentration −4.0): −83% | Mean Optical Densities (UACC-62; Log10 Concentration −5.0): 1.284 | Percent Growth (UACC-62; Log10 Concentration −5.0): 41% | Mean Optical Densities (UACC-62; Log10 Concentration −6.0): 2.153 | Percent Growth (UACC-62; Log10 Concentration −6.0): 89% | Mean Optical Densities (UACC-62; Log10 Concentration −7.0): 2.330 | Percent Growth (UACC-62; Log10 Concentration −7.0): 99% | Mean Optical Densities (UACC-62; Log10 Concentration −8.0): 2.369 | Percent Growth (UACC-62; Log10 Concentration −8.0): 101% | GI50 (SF-295): 70.7 µM | TGI (SF-295): >1.00E−4 | Mean Optical Densities (SF-295; Log10 Concentration −4.0): 1.767 | Percent Growth (SF-295; Log10 Concentration −4.0): 43% | Mean Optical Densities (SF-295; Log10 Concentration −5.0): 2.724 | Percent Growth (SF-295; Log10 Concentration −5.0): 87% | Mean Optical Densities (SF-295; Log10 Concentration −6.0): 2.913 | Percent Growth (SF-295; Log10 Concentration −6.0): 96% | Mean Optical Densities (SF-295; Log10 Concentration −7.0): 2.707 | Percent Growth (SF-295; Log10 Concentration −7.0): 87% | Mean Optical Densities (SF-295; Log10 Concentration −8.0): 2.920 | Percent Growth (SF-295; Log10 Concentration −8.0): 96% | GI50 (SF-539): 5.01 µM | TGI (SF-539): 1.99E−5 | Mean Optical Densities (SF-539; Log10 Concentration −4.0): 0.121 | Percent Growth (SF-539; Log10 Concentration −4.0): −79% | Mean Optical Densities (SF-539; Log10 Concentration −5.0): 1.049 | Percent Growth (SF-539; Log10 Concentration −5.0): 34% | Mean Optical Densities (SF-539; Log10 Concentration −6.0): 1.761 | Percent Growth (SF-539; Log10 Concentration −6.0): 87% | Mean Optical Densities (SF-539; Log10 Concentration −7.0): 1.799 | Percent Growth (SF-539; Log10 Concentration −7.0): 89% | Mean Optical Densities (SF-539; Log10 Concentration −8.0): 1.915 | Percent Growth (SF-539; Log10 Concentration −8.0): 97% | GI50 (SNB-19): 19.6 µM | TGI (SNB-19): 6.35E−5 | Mean Optical Densities (SNB-19; Log10 Concentration −4.0): 0.513 | Percent Growth (SNB-19; Log10 Concentration −4.0): −19% | Mean Optical Densities (SNB-19; Log10 Concentration −5.0): 1.860 | Percent Growth (SNB-19; Log10 Concentration −5.0): 79% | Mean Optical Densities (SNB-19; Log10 Concentration −6.0): 2.030 | Percent Growth (SNB-19; Log10 Concentration −6.0): 90% | Mean Optical Densities (SNB-19; Log10 Concentration −7.0): 2.075 | Percent Growth (SNB-19; Log10 Concentration −7.0): 93% | Mean Optical Densities (SNB-19; Log10 Concentration −8.0): 2.149 | Percent Growth (SNB-19; Log10 Concentration −8.0): 97% | GI50 (SNB-75): 7.65 µM | TGI (SNB-75): 2.40E−5 | Mean Optical Densities (SNB-75; Log10 Concentration −4.0): 0.183 | Percent Growth (SNB-75; Log10 Concentration −4.0): −76% | Mean Optical Densities (SNB-75; Log10 Concentration −5.0): 1.112 | Percent Growth (SNB-75; Log10 Concentration −5.0): 47% | Mean Optical Densities (SNB-75; Log10 Concentration −6.0): 1.330 | Percent Growth (SNB-75; Log10 Concentration −6.0): 76% | Mean Optical Densities (SNB-75; Log10 Concentration −7.0): 1.274 | Percent Growth (SNB-75; Log10 Concentration −7.0): 68% | Mean Optical Densities (SNB-75; Log10 Concentration −8.0): 1.343 | Percent Growth (SNB-75; Log10 Concentration −8.0): 78% | GI50 (COLO 205): 4.44 µM | TGI (COLO 205): 1.76E−5 | Mean Optical Densities (COLO 205; Log10 Concentration −4.0): 0.159 | Percent Growth (COLO 205; Log10 Concentration −4.0): −67% | Mean Optical Densities (COLO 205; Log10 Concentration −5.0): 0.767 | Percent Growth (COLO 205; Log10 Concentration −5.0): 22% | Mean Optical Densities (COLO 205; Log10 Concentration −6.0): 1.790 | Percent Growth (COLO 205; Log10 Concentration −6.0): 101% | Mean Optical Densities (COLO 205; Log10 Concentration −7.0): 1.715 | Percent Growth (COLO 205; Log10 Concentration −7.0): 95% | Mean Optical Densities (COLO 205; Log10 Concentration −8.0): 1.784 | Percent Growth (COLO 205; Log10 Concentration −8.0): 100% | GI50 (HCC-2998): 17.5 µM | TGI (HCC-2998): 3.55E−5 | Mean Optical Densities (HCC-2998; Log10 Concentration −4.0): 0.178 | Percent Growth (HCC-2998; Log10 Concentration −4.0): −73% | Mean Optical Densities (HCC-2998; Log10 Concentration −5.0): 1.871
